Experimental data as given in patent US8735411B2, “Macrocyclic benzofused pyrimidine derivatives” (AbbVie Inc., priority 2006, dated 2014).

Columns and labels:
[1] = molecular target: T1, histamine H4 receptor (Homo sapiens, UniProt Q9H3N8); assay: In vitro histamine H4 potency in FLIPR (Ca2+ flux, HEK-293 cells coexpressing Gαqi5); format: cell-based; design: expressed in transfected cells; conditions: Kb for antagonists and inverse agonists, EC50 for partial agonists
Method in brief: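 Fluo-4-loaded cells read on FLIPR for intracellular Ca2+ rise after compound addition, with pre-addition fluorescence subtracted. Peak responses per concentration expressed as % of the full-agonist histamine response. Concentration–response fits give Kb for antagonists/inverse agonists and EC50 for partial agonists.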
Target sequence in this assay (Q9H3N8 whole entry): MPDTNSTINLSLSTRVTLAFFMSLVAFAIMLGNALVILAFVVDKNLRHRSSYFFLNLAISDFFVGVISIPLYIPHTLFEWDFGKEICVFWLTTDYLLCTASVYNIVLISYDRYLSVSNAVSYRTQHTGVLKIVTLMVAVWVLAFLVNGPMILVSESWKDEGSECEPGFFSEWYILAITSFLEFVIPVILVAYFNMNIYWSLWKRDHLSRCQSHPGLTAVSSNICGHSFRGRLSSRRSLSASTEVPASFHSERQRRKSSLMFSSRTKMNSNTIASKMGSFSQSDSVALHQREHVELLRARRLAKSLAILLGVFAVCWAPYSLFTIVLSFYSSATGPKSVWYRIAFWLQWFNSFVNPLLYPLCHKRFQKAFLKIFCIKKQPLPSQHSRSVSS

[2] = tested on: neuropathic pain; assay: Analgesic effect against neuropathic pain: L5/L6 spinal nerve ligation (Chung model), von Frey mechanical allodynia; format: in vivo, rat; conditions: 30 minutes before testing
Protocol: Animals were prepared for testing, by use of a surgical procedure that induces neuropathic pain in one paw. Male Sprague Dawley rats were purchased from Charles River (Portage, Mich.). Prior to surgery, animals were housed in groups and maintained in a temperature-regulated environment. Following nerve ligation surgery, animals were housed in groups, and had access to food and water ad libitum.
The L5 and L6 spinal nerves of anesthetized rats were tightly ligated in a manner described previously (see Kim and Chung, Pain (1992) vol. 50 pp. 355-363). An incision was made on the dorsal portion of the hip and the muscle was blunt-dissected to reveal the spinal processes. The L6 transverse process was removed, and the left side L5 and L6 spinal nerves were tightly ligated with 5.0 braided silk suture. The wound was cleaned, the membrane sewn with 4.0 dissolvable Vicryl suture and the skin closed with wound clips. The paw affected by the surgical procedure (the left paw) develops an allodynic response, a hypersensitivity to mechanical and other stimuli; neuropathic pain is assessed as an increased sensitivity in the surgically affected (left) allodynic paw compared to the control paw on the right side, and measured by comparing the response of the (left side) allodynic paw to the response of the unaffected right side control paw.
For the assessment of neuropathic pain, mechanical allodynia in the affected paw of animals that had undergone spinal nerve ligation was evaluated using testing with von Frey filaments. As described previously by S. R. Chaplan, et al (“Quantitative assessment of tactile allodynia in the rat paw” J. Neurosci. Meth. (1994) vol. 53 pp. 55-63), two weeks following surgery rats were acclimated to a testing box constructed of plexiglass with a wire mesh floor which allowed access to the plantar surface of the animal's hindpaws. Using an Up-Down method (Dixon, Annu. Rev. Pharmacol. Toxicol. (1980) vol. 20, pp. 441-462; Chaplan et al. “Quantitative assessment of tactile allodynia in the rat paw” J. Neuroscience Methods (1994) vol. 53 pp. 55-63), von Frey filaments of increasing stiffness were applied to the plantar surface of the hindpaws and the withdrawal response of the animals was observed; for the surgically affected paw with neuropathic pain (the left side paw) the baseline level of allodynia has a withdrawal threshold of ≦4 g of pressure. […] The efficacy of the compound in reducing neuropathic pain at different doses is determined by comparing response in the surgery-affected paw versus the response in the control paw. This is expressed as the MPE (maximum percent effect), or 100 times the withdrawal threshold of the allodynic (left side) divided by the withdrawal threshold of the control (right side).

[3] = tested on: pain in a surgical skin incision model; assay: Analgesic effect in surgical skin incision model, von Frey mechanical allodynia; format: in vivo, rat
Protocol: This is a surgical skin incision model (Joshi, et al. Pain 123 (2006) 75-82). Animals (rats) were prepared for testing by subjecting them in a surgical procedure carried out under sterile conditions, where the plantaris muscle was elevated and incised longitudinally with the origin and insertion of the muscle remaining intact. The skin was then closed with two mattress sutures (e.g. 5-0 nylon sutures). After surgery, animals were allowed to recover on a warming plate and housed individually in cages with soft bedding. […] Animals were tested for mechanical allodynia using von Frey hair mechanical stimulation 2, 24, and 48 h after surgery as described for the Chung model.

[4] = tested on: inflammatory pain; assay: Analgesic effect against inflammatory pain: carrageenan-induced thermal hyperalgesia, hotbox assay; format: in vivo; conditions: 100 micromole/kg i.p., 90 min after carrageenan, tested 30 min after dosing
Protocol: To assess the effectiveness of representative compounds of the invention against acute model inflammatory pain, animals were tested in an acute model of carrageenan-induced thermal hyperalgesia (see for example, Honore, et al. Behavioural Brain Research 167 (2006) 355-364; Porreca, et al. Journal of Pharmacology and Experimental Therapeutics (2006) vol. 318 pp. 195-205). Carrageenan was injected into the test paw of the animal, and after 90 minutes, the test drug was administered by intraperitoneal dosing; the effect on thermal hyperalgesia was assessed in a hotbox assay which done 30 minutes after the intraperitoneal dosing of the test drug, and the MPE (maximal percent effect) reported by comparison to the control paw (not injected with carrageenan), according to 100 times the withdrawal latency of the carrageenan injected paw (in seconds) divided by the withdrawal latency of the control (not injected with carrageenan) paw.

[5] = molecular target: T1, histamine H4 receptor; assay: [3H]-histamine competition binding assay on membranes of transfected HEK-293 cells; design: expressed in transfected cells; host or cells: HEK-293 cells, transient transfection with pCINeo vector; membranes; conditions: displacement of [3H]-histamine; Ki by Cheng-Prusoff equation; read-out: Potency
Protocol: In this assay, membranes were prepared from HEK-293 cells transiently transfected with the pCINeo expression vector harboring the histamine H4 receptor by homogenization of the cells on ice in TE buffer (50 mM Tris-HCl buffer, pH 7.4, containing 5 mM EDTA), 1 mM benzamidine, 2 μg/ml aprotinin, 1 μg/ml leupeptin, and 1 μg/ml pepstatin. The homogenate was centrifuged at 40,000 g for 20 minutes at 4° C. This step was repeated, and the resulting pellet was resuspended in TE buffer. Aliquots were frozen at −70° C. until needed. On the day of assay, membranes were thawed and diluted with TE buffer. Competition radioligand binding assays were performed with increasing concentrations of test compound in the presence of [^3H]-histamine incubated at 25° C. for 1 hour in a total volume of 0.5 ml of 50 mM Tris, 5 mM EDTA, pH 7.4. All binding reactions were terminated by filtration under vacuum onto polyethylenimine (0.3%) presoaked Unifilters (PerkinElmer Life Sciences) or Whatman GF/B filters (Whatman, Clifton, N.J.) followed by three brief washes with 4 ml of ice-cold TE buffer. Bound radiolabel was determined by liquid scintillation counting. For all of the radioligand competition binding assays, IC50 values and Hill slopes were determined by Hill transformation of the data and Ki values were determined by the Cheng-Prusoff equation.
Target sequence in this assay (Q9H3N8 whole entry, species assumed): as the sequence (Q9H3N8 whole entry) above

For `CNC1CN(c2nc(N)nc3c2CCCc2ccccc2-3)C1` [Example 3, 4-(3-Methylamino-azetidin-1-yl)-6,7-dihydro-5H-benzo[6,7]cyclohepta[1,2-d]pyrimidin-2-ylamine], the Potency [1] was 9.3 nM, the MPE ([2]; 100 micromole/kg i.p.) was 36% and the MPE ([2]; 300 micromole/kg i.p.) was 78%. It also gave an MPE ([3]; 30 micromole/kg i.p.) of 21%, an MPE ([3]; 100 micromole/kg i.p.) of 69% and an MPE [4] of 41%. The Ki [5] was 4 nM.
